We go through 24 molecules from patent US20120165310A1, “ETHER DERIVATIVES OF BICYCLIC HETEROARYLS” (NOVARTIS AG, priority 2009, published 2012).

A value given as a limit tells only on which side of the number the result lay.

The assay deals with T1, IGF-1R (Homo sapiens, UniProt P08069).
T1 construct: expressed in transfected cells; host or cells: Hek293 (Hek293-IGF1R)
T1 sequence (P08069 31-1367): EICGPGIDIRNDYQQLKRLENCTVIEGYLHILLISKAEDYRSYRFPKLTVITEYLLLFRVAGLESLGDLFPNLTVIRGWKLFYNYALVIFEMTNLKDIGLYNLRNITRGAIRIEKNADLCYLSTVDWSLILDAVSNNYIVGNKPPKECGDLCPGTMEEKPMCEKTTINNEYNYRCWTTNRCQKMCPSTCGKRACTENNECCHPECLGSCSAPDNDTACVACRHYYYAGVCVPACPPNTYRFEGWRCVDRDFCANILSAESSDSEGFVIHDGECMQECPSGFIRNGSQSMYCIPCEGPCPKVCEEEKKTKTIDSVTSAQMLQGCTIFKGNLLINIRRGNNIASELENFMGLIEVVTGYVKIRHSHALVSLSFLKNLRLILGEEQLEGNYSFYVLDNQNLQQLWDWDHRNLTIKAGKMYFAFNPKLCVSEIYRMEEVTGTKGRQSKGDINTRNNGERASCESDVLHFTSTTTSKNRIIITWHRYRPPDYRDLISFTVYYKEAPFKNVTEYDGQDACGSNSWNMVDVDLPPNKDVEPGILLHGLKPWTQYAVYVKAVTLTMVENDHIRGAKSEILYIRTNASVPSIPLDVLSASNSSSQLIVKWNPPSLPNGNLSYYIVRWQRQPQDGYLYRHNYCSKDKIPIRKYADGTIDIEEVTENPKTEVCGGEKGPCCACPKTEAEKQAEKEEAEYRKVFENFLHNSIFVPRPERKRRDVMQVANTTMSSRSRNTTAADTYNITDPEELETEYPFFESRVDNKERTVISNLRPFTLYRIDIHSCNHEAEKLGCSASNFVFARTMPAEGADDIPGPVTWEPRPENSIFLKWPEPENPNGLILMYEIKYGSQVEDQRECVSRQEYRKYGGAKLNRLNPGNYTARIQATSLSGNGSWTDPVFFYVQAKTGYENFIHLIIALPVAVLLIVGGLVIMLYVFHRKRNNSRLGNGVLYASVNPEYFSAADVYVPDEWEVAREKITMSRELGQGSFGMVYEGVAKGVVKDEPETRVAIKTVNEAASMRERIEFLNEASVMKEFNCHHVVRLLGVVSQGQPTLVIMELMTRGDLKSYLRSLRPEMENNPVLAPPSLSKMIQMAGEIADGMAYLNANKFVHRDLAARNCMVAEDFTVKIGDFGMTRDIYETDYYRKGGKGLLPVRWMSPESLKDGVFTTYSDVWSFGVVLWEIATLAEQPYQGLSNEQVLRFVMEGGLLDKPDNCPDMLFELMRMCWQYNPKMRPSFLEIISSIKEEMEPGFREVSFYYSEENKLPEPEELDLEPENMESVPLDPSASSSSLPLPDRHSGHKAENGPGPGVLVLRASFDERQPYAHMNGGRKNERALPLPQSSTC
Put plainly: Cellular IGF-1R assay: capture ELISA (MSD) of receptor phosphorylation in Hek293 cells. The assay is classed as cell-based. The following applies: Hek293-IGF1R cells, 1 h pre-incubation, 10 min IGF stimulation, pIGF1R capture ELISA. A digest of the protocol: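 IC50 from 4-parameter fit of IGF1R phosphorylation, normalised to IGF-stimulated and unstimulated controls, measured by MSD capture ELISA on lysates. Hek293-IGF1R cells in starvation medium got compound 1 h (top 10 μM, 3-fold steps, 0.1% DMSO) before a 10 min pulse of 1.0 ng/μL IGF.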
In general terms: ELISA stands for enzyme-linked immunosorbent assay.
As usually defined, the IC50 is the midpoint of a concentration-inhibition curve. Read a high IC50 as weaker potency in that assay. For `NC(=O)[C@@H]1[C@@H](O)CCN1C[C@H]1C[C@@H](n2cc(-c3cccc(OCC4CCCCO4)c3)c3c(N)ncnc32)C1` (stereo partly drawn) [Example 35, (2S,3S)-1-(cis-3-{4-amino-5-[3-(tetrahydro-pyran-2-ylmethoxy)-phenyl]-pyrrolo[2,3-d]pyrimidin-7-yl}-cyclobutylmethyl)-3-hydroxy-pyrrolidine-2-carboxylic acid amide], the half-inhibitory concentration (IC50) lay in the range of 41 to 103 nM.
`NC(=O)[C@@H]1CCCN1C[C@H]1C[C@H](n2cc(-c3cccc(OCC4CCCCO4)c3)c3c(N)ncnc32)C1` (stereo partly drawn) [Example 38, (S)-1-(trans-3-{4-amino-5-[3-(tetrahydro-pyran-2-ylmethoxy)-phenyl]-pyrrolo[2,3-d]pyrimidin-7-yl}-cyclobutylmethyl)-pyrrolidine-2-carboxylic acid amide] came in with a half-maximal inhibitory concentration (IC50) of 276 nM.
The figure for `CC1(C)CCC(COc2cccc(-c3cn(C4CC(CN5CC(F)C5)C4)c4ncnc(N)c34)c2)O1` (stereo not drawn) [Example 40, 5-(cis-3-((5,5-dimethyltetrahydrofuran-2-yl)methoxy)phenyl)-7-(3-((3-fluoroazetidin-1-yl)methyl)cyclobutyl)-7H-pyrrolo[2,3-d]pyrimidin-4-amine] is 39 to 52 nM; for `NC(=O)[C@@H]1CCCN1C[C@H]1C[C@@H](n2cc(-c3cccc(OCC4CCCCO4)c3)c3c(N)ncnc32)C1` (stereo partly drawn) [Example 42, (S)-1-(cis-3-{4-amino-5-[3-(tetrahydro-pyran-2-ylmethoxy)-phenyl]-pyrrolo[2,3-d]pyrimidin-7-yl}-cyclobutylmethyl)-pyrrolidine-2-carboxylic acid amide] it is 26 to 39 nM.
The figure for `NC(=O)[C@@H]1CCCN1C[C@H]1C[C@@H](n2cc(-c3cccc(OC[C@H]4CCCCO4)c3)c3c(N)ncnc32)C1` [Example 43, (S)-1-[3-(4-amino-5-{3-[(R)-1-(tetrahydro-pyran-2-yl)methoxy]-phenyl}-pyrrolo[2,3-d]pyrimidin-7-yl)-cyclobutylmethyl]-pyrrolidine-2-carboxylic acid amide] is 4 to 22 nM; for `NC(=O)[C@@H]1CCCN1C[C@H]1C[C@@H](n2cc(-c3cccc(OC[C@@H]4CCCCO4)c3)c3c(N)ncnc32)C1` [Example 44, (S)-1-[3-(4-amino-5-{3-[(S)-1-(tetrahydro-pyran-2-yl)methoxy]-phenyl}-pyrrolo[2,3-d]pyrimidin-7-yl)-cyclobutylmethyl]-pyrrolidine-2-carboxylic acid amide] it is 7 to 15 nM; for `CC1(C)CCC(COc2cccc(-c3cn(C4CC(CN5CC(F)C5)C4)c4ncnc(N)c34)c2)O1` (stereo not drawn) [Example 47, 5-[trans-3-(5,5-dimethyl-tetrahydro-furan-2-ylmethoxy)-phenyl]-7-[3-(3-fluoro-azetidin-1-ylmethyl)-cyclobutyl]-7H-pyrrolo[2,3-d]pyrimidin-4-ylamine] it is 34 nM.
The figure for `CC1(C)CCC(COc2cccc(-c3cn([C@H]4C[C@@H](CN5CCC[C@H]5C(N)=O)C4)c4ncnc(N)c34)c2)O1` (stereo partly drawn) [Example 50, (S)-1-(cis-3-{4-amino-5-[3-(5,5-dimethyl-tetrahydro-furan-2-ylmethoxy)-phenyl]-pyrrolo[2,3-d]pyrimidin-7-yl}-cyclobutylmethyl)-pyrrolidine-2-carboxylic acid amide] is 8 nM; for `CC1(C)CCC(COc2cccc(-c3cn([C@H]4C[C@@H](CN5CCC[C@@H]5C(N)=O)C4)c4ncnc(N)c34)c2)O1` (stereo partly drawn) [Example 51, (R)-1-(cis-3-{4-amino-5-[3-(5,5-dimethyl-tetrahydro-furan-2-ylmethoxy)-phenyl]-pyrrolo[2,3-d]pyrimidin-7-yl}-cyclobutylmethyl)-pyrrolidine-2-carboxylic acid amide] it is 53 nM.
`NC(=O)[C@H]1[C@@H](O)CCN1C[C@H]1C[C@@H](n2cc(-c3cccc(OCC4CCCCO4)c3)c3c(N)ncnc32)C1` (stereo partly drawn) [Example 56, (2R,3S)-1-(cis-3-{4-amino-5-[3-(tetrahydro-pyran-2-ylmethoxy)-phenyl]-pyrrolo[2,3d]pyrimidin-7-yl}-cyclobutylmethyl)-3-hydroxy-pyrrolidine-2-carboxylic acid amide] showed a 50% inhibitory concentration (IC50) of 97 nM.
Molecule `CC1(C)CCC(COc2cccc(-c3cn(C4CC(CN5CCC(O)C5)C4)c4ncnc(N)c34)c2)O1` [Example 57, (S)-1-(3-{4-amino-5-[3-(5,5-dimethyl-tetrahydro-furan-2-ylmethoxy)-phenyl]-5 pyrrolo[2,3-d]pyrimidin-7-yl}-cyclobutylmethyl)-pyrrolidin-3-ol] registered an IC50 of 15 nM.
The figure for `CC1(C)CCC(COc2cccc(-c3cn([C@H]4C[C@@H](CN5CC[C@@H](O)C5)C4)c4ncnc(N)c34)c2)O1` (stereo partly drawn) [Example 58, (R)-1-(cis-3-{4-amino-5-[3-(5,5-dimethyl-tetrahydro-furan-2-ylmethoxy)-phenyl]-pyrrolo[2,3-d]pyrimidin-7-yl}cyclobutylmethyl)-pyrrolidin-3-ol] is 50 nM.
As for `CN1CCC(N2CCC(n3cc(-c4cccc(OCC5CCC(C)(C)O5)c4)c4c(N)ncnc43)CC2)CC1` (stereo not drawn) [Example 60, 5-[3-(5,5-dimethyl-tetrahydro-furan-2-ylmethoxy)-phenyl]-7-(1′-methyl-[1,4′]bipiperidinyl-4-yl)-7H-pyrrolo[2,3-d]pyrimidin-4-ylamine], the IC50 was found to be 339 nM.
The molecule `CC1(C)CCC(COc2cccc(-c3cn([C@H]4C[C@@H](CN5CCNC(=O)C5)C4)c4ncnc(N)c34)c2)O1` (stereo partly drawn) [Example 61, 4-(cis-3-{4-amino-5-[3-(5,6-dimethyl-tetrahydro-furan-2-ylmethoxy)-phenyl]-pyrrolo[2,3-d]pyrimidin-7-yl}-cyclobutylmethyl)-piperazin-2-one] showed an IC50 of 212 nM.
The figure for `NC(=O)[C@@H]1CCCN1C[C@H]1C[C@@H](n2cc(-c3cccc(OCC45CCC(CC4)O5)c3)c3c(N)ncnc32)C1` [Example 68, (S)-1-(cis-3-(4-amino-5-[3-(7-oxa-bicyclo[2.2.1]hept-1-ylmethoxy)-phenyl]-pyrrolo[2,3-d]pyrimidin-7-yl)-cyclobutylmethyl)-pyrrolidine-2-carboxylic acid amide] is 12 nM; for `CC1(C)CCC(COc2cccc(-c3cn(C4CCC(N5CCC[C@H]5C(N)=O)CC4)c4ncnc(N)c34)c2)O1` (stereo partly drawn) [Example 69, (S)-1-(4-{4-amino-5-[3-(5,5-dimethyl-tetrahydro-furan-2-ylmethoxy)-phenyl]-pyrrolo[2,3-d]pyrimidin-7-yl}-cyclohexyl)-pyrrolidine-2-carboxylic acid amide] it is 388 nM; for `CC1(C)CCC(COc2cccc(-c3cn([C@H]4C[C@H](CN5CCC[C@H]5C(N)=O)C4)c4ncnc(N)c34)c2)O1` (stereo partly drawn) [Example 71, (S)-1-(trans-3-{4-amino-5-[3-(5,5-dimethyl-tetrahydro-furan-2-ylmethoxy)-phenyl]-pyrrolo[2,3-d]pyrimidin-7-yl}-cyclobutylmethyl)-pyrrolidine-2-carboxylic acid amide] it is below 4 nM.
To `CC1(C)CCC(COc2cccc(-c3cn([C@H]4C[C@H](CN5CCC[C@@H]5C(N)=O)C4)c4ncnc(N)c34)c2)O1` (stereo partly drawn) [Example 72, (R)-1-(trans-3-{4-amino-5-[3-(5,5-dimethyl-tetrahydro-furan-2-ylmethoxy)-phenyl]pyrrolo[2,3-d]pyrimidin-7-yl}-cyclobutylmethyl)-pyrrolidine-2-carboxylic acid amide] belongs 57 nM; to `NC(=O)[C@H]1CCCN1C[C@H]1C[C@@H](n2cc(-c3cccc(OCC45CCC(CC4)O5)c3)c3c(N)ncnc32)C1` [Example 75, (R)-1-(cis-3-{4-amino-5-[3-(7-oxa-bicyclo[2.2.1]hept-1-ylmethoxy)-phenyl]-pyrrolo[2,3-d]pyrimidin-7-yl}-cyclobutylmethyl)-pyrrolidine-2-carboxylic acid amide], 8 nM.
Turning to `NC(=O)[C@@H]1CCCN1C[C@H]1C[C@@H](n2cc(-c3cccc(OCC4CCCO4)c3)c3c(N)ncnc32)C1` (stereo partly drawn) [Example 76, (S)-1-(cis-3-{4-amino-5-[3-(tetrahydro-furan-2-ylmethoxy)-phenyl]-pyrrolo[2,3-d]pyrimidin-7-yl}-cyclobutylmethyl)-pyrrolidine-2-carboxylic acid amide], the midpoint of inhibition, the IC50, lay at 39 nM.
The figure for `NC(=O)[C@@H]1CCCN1C[C@H]1C[C@H](n2cc(-c3cccc(OCC45CCC(CC4)O5)c3)c3c(N)ncnc32)C1` [Example 78, (S)-1-(trans-3-{4-amino-5-[3-(7-oxa-bicyclo[2.2.1]hept-1-ylmethoxy)-phenyl]-pyrrolo[2,3-d]pyrimidin-7-yl}cyclobutylmethyl)-pyrrolidine-2-carboxylic acid amide] is 5 nM; for `NC(=O)[C@H]1CCCN1C[C@H]1C[C@H](n2cc(-c3cccc(OCC45CCC(CC4)O5)c3)c3c(N)ncnc32)C1` [Example 79, (R)-1-(trans-3-{4-amino-5-[3-(7-oxa-bicyclo[2.2.1]hept-1-ylmethoxy)-phenyl]-pyrrolo[2,3-d]pyrimidin-7-yl}cyclobutylmethyl)-pyrrolidine-2-carboxylic acid amide] it is 7 nM.
To `CC1(C)CCC(COc2cccc(-c3cn([C@H]4C[C@H](CN5CC[C@@H](O)[C@H]5C(N)=O)C4)c4ncnc(N)c34)c2)O1` (stereo partly drawn) [Example 80, (2S,3R)-1-(trans-3-(4-amino-5-[3-(5,5-dimethyl-tetrahydro-furan-2-ylmethoxy)-phenyl]-pyrrolo[2,3-d]pyrimidin-7-yl}-cyclobutylmethyl)-3-hydroxy-pyrrolidine-2-carboxylic acid amide] belongs 13 nM.
To `NC(=O)[C@H]1CCCN1C[C@H]1C[C@@H](n2cc(-c3cccc(OCC4CCCO4)c3)c3c(N)ncnc32)C1` (stereo partly drawn) [Example 81, (R)-1-(cis-3-{4-amino-5-[3-(tetrahydro-furan-2-ylmethoxy)-phenyl]-pyrrolo[2,3-d]pyrimidin-7-yl}-cyclobutylmethyl)-pyrrolidine-2-carboxylic acid amide] belongs 157 nM.
